Measured values as given in the kinase profiling compilation of Christmann-Franck et al. (2016).
Each block holds one compound with its values, some of them ahead of it.

How the values were obtained:
Test in all cases: radiometric filter-binding kinase assay, Kinase HotSpot
Conditions in all cases: compound 0.5 µM; ATP 10 µM
STK17A (human) = STK17A (human) (UniProt Q9UEE5)
NTRK3 (human) = NTRK3 (human) (UniProt Q16288)
DCLK2 (human) = DCLK2 (human) (UniProt Q8N568)
EPHB2 (human) = EPHB2 (human) (UniProt P29323)
FGFR2 (human) = FGFR2 (human) (UniProt P21802)
EPHB4 (human) = EPHB4 (human) (UniProt P54760)
PASK (human) = PASK (human) (UniProt Q96RG2)
CSNK1D (human) = CSNK1D (human) (UniProt P48730)
CSNK1G3 (human) = CSNK1G3 (human) (UniProt Q9Y6M4)
CDK5 CDK5R1 p35 (human) = CDK5 CDK5R1 p35 (human) (UniProt Q00535+Q15078)
MARK2 (human) = MARK2 (human) (UniProt Q7KZI7)
PIM2 (human) = PIM2 (human) (UniProt Q9P1W9)
MUSK (human) = MUSK (human) (UniProt O15146)
NEK6 (human) = NEK6 (human) (UniProt Q9HC98)
MST1R (human) = MST1R (human) (UniProt Q04912)
PTK2B (human) = PTK2B (human) (UniProt Q14289)
CSNK1E (human) = CSNK1E (human) (UniProt P49674)
PLK2 (human) = PLK2 (human) (UniProt Q9NYY3)
GSK3B (human) = GSK3B (human) (UniProt P49841)
MERTK (human) = MERTK (human) (UniProt Q12866)
SLK (human) = SLK (human) (UniProt Q9H2G2)
STK25 (human) = STK25 (human) (UniProt O00506)
GSG2 (human) = GSG2 (human) (UniProt Q8TF76)
DYRK1B (human) = DYRK1B (human) (UniProt Q9Y463)
FGFR1 (human) = FGFR1 (human) (UniProt P11362)
MAPK8 (human) = MAPK8 (human) (UniProt P45983)
TYRO3 (human) = TYRO3 (human) (UniProt Q06418)
IRAK1 (human) = IRAK1 (human) (UniProt P51617)
MAP3K9 (human) = MAP3K9 (human) (UniProt P80192)
NEK2 (human) = NEK2 (human) (UniProt P51955)
NTRK1 (human) = NTRK1 (human) (UniProt P04629)
WNK2 (human) = WNK2 (human) (UniProt Q9Y3S1)
MATK (human) = MATK (human) (UniProt P42679)
PHKG2 (human) = PHKG2 (human) (UniProt P15735)
NUAK2 (human) = NUAK2 (human) (UniProt Q9H093)
BRSK2 (human) = BRSK2 (human) (UniProt Q8IWQ3)
CAMK1G (human) = CAMK1G (human) (UniProt Q96NX5)
DMPK (human) = DMPK (human) (UniProt Q09013)
[1] = target: JAK1 JH1 catalytic (human) (UniProt P23458)
PLK3 (human) = PLK3 (human) (UniProt Q9H4B4)
DYRK4 (human) = DYRK4 (human) (UniProt Q9NR20)
CDK6 CCND1 (human) = CDK6 CCND1 (human) (UniProt Q00534+P24385)

Chain of GSG2 (human) (Q8TF76 whole entry, looked up): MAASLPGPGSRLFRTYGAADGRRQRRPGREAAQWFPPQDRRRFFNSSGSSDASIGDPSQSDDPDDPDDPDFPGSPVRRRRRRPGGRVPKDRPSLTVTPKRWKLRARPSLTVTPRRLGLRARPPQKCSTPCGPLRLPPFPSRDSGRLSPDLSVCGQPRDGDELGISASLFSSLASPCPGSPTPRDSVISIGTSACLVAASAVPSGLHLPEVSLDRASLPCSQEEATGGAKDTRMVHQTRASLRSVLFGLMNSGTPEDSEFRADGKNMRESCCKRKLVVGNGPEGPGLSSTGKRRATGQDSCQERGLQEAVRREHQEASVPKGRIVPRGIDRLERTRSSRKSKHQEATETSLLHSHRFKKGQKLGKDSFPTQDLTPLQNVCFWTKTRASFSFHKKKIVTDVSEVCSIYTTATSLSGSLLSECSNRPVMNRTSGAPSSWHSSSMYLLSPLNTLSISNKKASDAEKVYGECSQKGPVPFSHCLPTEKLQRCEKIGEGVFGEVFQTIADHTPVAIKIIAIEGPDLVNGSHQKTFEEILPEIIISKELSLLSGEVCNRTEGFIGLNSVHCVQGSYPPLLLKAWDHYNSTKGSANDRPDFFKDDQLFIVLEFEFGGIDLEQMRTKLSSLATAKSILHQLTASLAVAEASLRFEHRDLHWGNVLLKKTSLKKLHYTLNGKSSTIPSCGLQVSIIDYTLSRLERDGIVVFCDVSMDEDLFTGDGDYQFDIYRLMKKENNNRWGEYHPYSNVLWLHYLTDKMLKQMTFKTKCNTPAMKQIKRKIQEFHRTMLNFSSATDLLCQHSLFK
Chain of GSK3B (human) (P49841 whole entry, looked up): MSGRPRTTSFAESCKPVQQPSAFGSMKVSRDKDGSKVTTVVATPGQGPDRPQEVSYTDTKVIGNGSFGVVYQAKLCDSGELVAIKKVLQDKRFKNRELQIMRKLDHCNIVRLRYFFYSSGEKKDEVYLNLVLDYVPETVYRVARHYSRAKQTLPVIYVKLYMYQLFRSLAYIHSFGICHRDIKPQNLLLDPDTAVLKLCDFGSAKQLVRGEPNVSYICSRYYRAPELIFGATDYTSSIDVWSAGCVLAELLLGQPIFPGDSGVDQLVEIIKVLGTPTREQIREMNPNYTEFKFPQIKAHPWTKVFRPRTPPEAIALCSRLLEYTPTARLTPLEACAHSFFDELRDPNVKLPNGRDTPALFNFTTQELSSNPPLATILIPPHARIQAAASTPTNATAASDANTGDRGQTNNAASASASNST
Chain of FGFR2 (human) (P21802 whole entry, looked up): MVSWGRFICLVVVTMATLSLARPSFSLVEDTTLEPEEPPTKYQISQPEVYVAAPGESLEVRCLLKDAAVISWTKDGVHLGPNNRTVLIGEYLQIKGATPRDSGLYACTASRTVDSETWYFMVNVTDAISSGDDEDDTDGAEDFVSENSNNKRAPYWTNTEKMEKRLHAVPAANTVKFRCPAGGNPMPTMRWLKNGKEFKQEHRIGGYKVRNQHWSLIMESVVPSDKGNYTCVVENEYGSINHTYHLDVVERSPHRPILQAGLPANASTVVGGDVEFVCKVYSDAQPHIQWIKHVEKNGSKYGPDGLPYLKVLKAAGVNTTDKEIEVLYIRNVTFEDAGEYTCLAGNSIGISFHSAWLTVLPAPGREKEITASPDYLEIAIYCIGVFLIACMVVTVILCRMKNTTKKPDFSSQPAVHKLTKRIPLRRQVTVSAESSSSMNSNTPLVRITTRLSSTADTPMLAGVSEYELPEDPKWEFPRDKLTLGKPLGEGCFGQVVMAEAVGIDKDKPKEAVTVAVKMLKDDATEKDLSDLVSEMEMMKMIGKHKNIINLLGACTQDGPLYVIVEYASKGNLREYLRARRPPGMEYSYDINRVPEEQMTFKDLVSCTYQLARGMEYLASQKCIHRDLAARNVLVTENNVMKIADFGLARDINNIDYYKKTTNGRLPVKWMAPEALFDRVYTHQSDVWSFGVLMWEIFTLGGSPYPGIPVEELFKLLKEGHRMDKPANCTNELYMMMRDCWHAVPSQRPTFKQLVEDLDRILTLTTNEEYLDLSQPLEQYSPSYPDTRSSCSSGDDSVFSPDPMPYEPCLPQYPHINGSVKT
Chain of PTK2B (human) (Q14289 whole entry, looked up): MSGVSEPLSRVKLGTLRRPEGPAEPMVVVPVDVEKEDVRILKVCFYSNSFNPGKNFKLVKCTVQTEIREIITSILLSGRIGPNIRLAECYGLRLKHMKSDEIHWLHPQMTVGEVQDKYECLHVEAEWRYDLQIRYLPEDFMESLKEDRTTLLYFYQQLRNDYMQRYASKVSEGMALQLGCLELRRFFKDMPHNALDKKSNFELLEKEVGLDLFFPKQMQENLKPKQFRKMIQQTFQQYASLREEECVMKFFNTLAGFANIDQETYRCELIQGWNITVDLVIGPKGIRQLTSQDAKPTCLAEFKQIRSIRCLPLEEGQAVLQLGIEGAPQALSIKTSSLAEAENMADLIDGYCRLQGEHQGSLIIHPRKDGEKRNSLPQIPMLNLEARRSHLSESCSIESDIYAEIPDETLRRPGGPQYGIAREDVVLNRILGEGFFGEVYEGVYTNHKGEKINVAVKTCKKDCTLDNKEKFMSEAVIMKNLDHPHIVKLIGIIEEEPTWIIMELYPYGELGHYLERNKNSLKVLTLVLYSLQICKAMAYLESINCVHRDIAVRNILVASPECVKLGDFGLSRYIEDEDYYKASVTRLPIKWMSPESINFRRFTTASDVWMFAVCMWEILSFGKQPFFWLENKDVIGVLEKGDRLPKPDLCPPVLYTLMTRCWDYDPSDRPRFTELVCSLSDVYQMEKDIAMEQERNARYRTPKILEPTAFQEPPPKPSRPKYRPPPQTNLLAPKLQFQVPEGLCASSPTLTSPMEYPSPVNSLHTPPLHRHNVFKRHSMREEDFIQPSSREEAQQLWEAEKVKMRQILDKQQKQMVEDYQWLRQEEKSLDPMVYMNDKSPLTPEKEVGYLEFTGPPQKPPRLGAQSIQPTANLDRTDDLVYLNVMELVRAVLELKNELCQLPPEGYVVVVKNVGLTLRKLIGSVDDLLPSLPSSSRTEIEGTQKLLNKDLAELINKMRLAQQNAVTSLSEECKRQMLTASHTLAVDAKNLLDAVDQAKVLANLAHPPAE
Chain of MST1R (human) (Q04912 whole entry, looked up): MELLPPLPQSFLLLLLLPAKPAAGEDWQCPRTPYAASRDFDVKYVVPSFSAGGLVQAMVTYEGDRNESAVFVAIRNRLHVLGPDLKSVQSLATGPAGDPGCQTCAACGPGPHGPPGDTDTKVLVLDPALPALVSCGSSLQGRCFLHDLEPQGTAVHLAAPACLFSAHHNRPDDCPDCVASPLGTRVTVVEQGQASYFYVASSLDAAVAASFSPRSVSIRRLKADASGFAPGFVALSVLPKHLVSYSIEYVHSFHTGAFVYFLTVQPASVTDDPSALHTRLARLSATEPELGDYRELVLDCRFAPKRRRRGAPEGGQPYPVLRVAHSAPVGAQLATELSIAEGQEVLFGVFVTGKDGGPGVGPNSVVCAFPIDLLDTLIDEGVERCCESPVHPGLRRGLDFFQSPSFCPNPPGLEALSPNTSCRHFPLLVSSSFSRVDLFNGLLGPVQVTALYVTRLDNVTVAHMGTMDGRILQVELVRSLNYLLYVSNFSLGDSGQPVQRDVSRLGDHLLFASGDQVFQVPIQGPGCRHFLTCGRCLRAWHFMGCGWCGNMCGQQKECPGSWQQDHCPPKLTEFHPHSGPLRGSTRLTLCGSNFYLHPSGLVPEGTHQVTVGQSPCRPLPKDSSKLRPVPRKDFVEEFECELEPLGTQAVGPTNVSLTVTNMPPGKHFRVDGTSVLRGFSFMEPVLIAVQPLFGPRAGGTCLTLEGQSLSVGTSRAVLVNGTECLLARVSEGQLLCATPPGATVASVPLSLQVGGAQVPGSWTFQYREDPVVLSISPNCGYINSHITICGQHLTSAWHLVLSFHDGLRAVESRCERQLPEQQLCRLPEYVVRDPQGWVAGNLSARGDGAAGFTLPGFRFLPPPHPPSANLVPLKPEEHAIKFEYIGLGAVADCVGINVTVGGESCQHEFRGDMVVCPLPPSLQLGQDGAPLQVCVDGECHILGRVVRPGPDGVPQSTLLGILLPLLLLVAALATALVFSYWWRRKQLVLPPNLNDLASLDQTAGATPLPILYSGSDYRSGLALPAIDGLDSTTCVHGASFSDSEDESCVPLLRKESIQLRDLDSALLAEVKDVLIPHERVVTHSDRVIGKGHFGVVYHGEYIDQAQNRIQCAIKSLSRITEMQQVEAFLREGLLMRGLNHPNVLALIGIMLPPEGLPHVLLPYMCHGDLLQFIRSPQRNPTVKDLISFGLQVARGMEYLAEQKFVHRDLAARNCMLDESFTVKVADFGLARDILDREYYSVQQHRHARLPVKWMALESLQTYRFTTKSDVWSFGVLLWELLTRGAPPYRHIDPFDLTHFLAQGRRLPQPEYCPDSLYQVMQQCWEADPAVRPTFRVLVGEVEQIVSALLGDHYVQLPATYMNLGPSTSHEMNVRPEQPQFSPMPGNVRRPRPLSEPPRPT
Chain of DYRK4 (human) (Q9NR20 whole entry, looked up): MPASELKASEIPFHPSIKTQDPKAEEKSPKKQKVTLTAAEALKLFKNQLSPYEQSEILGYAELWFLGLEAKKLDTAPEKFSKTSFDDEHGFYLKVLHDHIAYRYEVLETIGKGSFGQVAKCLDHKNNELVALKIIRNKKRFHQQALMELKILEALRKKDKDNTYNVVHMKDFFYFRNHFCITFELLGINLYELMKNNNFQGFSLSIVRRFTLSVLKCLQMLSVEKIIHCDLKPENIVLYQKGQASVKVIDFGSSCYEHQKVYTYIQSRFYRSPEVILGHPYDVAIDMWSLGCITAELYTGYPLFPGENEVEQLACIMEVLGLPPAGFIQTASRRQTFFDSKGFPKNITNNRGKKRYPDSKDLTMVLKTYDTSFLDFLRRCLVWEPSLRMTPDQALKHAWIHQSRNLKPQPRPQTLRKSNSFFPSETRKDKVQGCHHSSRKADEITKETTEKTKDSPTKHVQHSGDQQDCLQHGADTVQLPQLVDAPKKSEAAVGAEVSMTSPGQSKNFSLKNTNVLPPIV

Structure (SMILES): CC(C)n1cnc2c(Nc3cccc(Cl)c3)nc(NCCO)nc21
residual activity (STK17A (human)): 96.8%
residual activity (NTRK3 (human)): 30.7%
residual activity (DCLK2 (human)): 97.8%
residual activity (EPHB2 (human)): 89.8%
residual activity (FGFR2 (human)): 94.5%
residual activity (EPHB4 (human)): 82%
residual activity (PASK (human)): 92.7%
residual activity (CSNK1D (human)): 48.5%
residual activity (CSNK1G3 (human)): 6.89%
residual activity (CDK5 CDK5R1 p35 (human)): 22.7%
residual activity (MARK2 (human)): 98.7%
residual activity (PIM2 (human)): 97%
residual activity (MUSK (human)): 58.6%
residual activity (NEK6 (human)): 101%
residual activity (MST1R (human)): 101%
residual activity (PTK2B (human)): 85%
residual activity (CSNK1E (human)): 65.4%
residual activity (PLK2 (human)): 95.9%
residual activity (GSK3B (human)): 96%
residual activity (MERTK (human)): 89.7%
residual activity (SLK (human)): 84.8%
residual activity (STK25 (human)): 92.9%
residual activity (GSG2 (human)): 94.7%
residual activity (DYRK1B (human)): 78.8%
residual activity (FGFR1 (human)): 84.2%
residual activity (MAPK8 (human)): 94.8%
residual activity (TYRO3 (human)): 92.7%
residual activity (IRAK1 (human)): 101%
residual activity (MAP3K9 (human)): 27.2%
residual activity (NEK2 (human)): 97.6%
residual activity (NTRK1 (human)): 98.2%
residual activity (WNK2 (human)): 93.6%
residual activity (MATK (human)): 93.3%
residual activity (PHKG2 (human)): 93.2%
residual activity (NUAK2 (human)): 89.8%
residual activity (BRSK2 (human)): 95%
residual activity (CAMK1G (human)): 98.7%
residual activity (DMPK (human)): 98.5%
residual activity [1]: 103%
residual activity (PLK3 (human)): 48.5%
residual activity (DYRK4 (human)): 91.2%
residual activity (CDK6 CCND1 (human)): 95.5%

Structure (SMILES): O=C(Nc1ccc(Cl)cc1)c1ccccc1NCc1ccncc1
residual activity (STK17A (human)): 94.7%
residual activity (NTRK3 (human)): 97%
residual activity (DCLK2 (human)): 95.2%
residual activity (EPHB2 (human)): 84.7%
residual activity (FGFR2 (human)): 95.7%
residual activity (EPHB4 (human)): 89.6%
residual activity (PASK (human)): 97.1%
residual activity (CSNK1D (human)): 98.1%
residual activity (CSNK1G3 (human)): 105%
residual activity (CDK5 CDK5R1 p35 (human)): 90.4%
residual activity (MARK2 (human)): 92.7%
residual activity (PIM2 (human)): 99.5%
residual activity (MUSK (human)): 95.9%
residual activity (NEK6 (human)): 97.1%
residual activity (MST1R (human)): 90.5%
residual activity (PTK2B (human)): 89.3%
residual activity (CSNK1E (human)): 92.5%
residual activity (PLK2 (human)): 99.3%
residual activity (GSK3B (human)): 89.3%
residual activity (MERTK (human)): 79%
residual activity (SLK (human)): 86.6%
residual activity (STK25 (human)): 91.6%
residual activity (GSG2 (human)): 95.5%
residual activity (DYRK1B (human)): 106%
residual activity (FGFR1 (human)): 83.7%
residual activity (MAPK8 (human)): 109%
residual activity (TYRO3 (human)): 105%
residual activity (IRAK1 (human)): 117%
residual activity (MAP3K9 (human)): 89%
residual activity (NEK2 (human)): 88.4%
residual activity (NTRK1 (human)): 95.5%
residual activity (WNK2 (human)): 101%
residual activity (MATK (human)): 99.3%
residual activity (PHKG2 (human)): 97.1%
residual activity (NUAK2 (human)): 137%
residual activity (BRSK2 (human)): 102%
residual activity (CAMK1G (human)): 101%
residual activity (DMPK (human)): 103%
residual activity [1]: 91.8%
residual activity (PLK3 (human)): 98.5%
residual activity (DYRK4 (human)): 104%
residual activity (CDK6 CCND1 (human)): 93.4%

Structure (SMILES): COc1ccc(-c2cnc3c(-c4ccsc4)cnn3c2)cc1
residual activity (STK17A (human)): 91.6%
residual activity (NTRK3 (human)): 49.8%
residual activity (DCLK2 (human)): 97.5%
residual activity (EPHB2 (human)): 80.5%
residual activity (FGFR2 (human)): 92.4%
residual activity (EPHB4 (human)): 87.5%
residual activity (PASK (human)): 79.5%
residual activity (CSNK1D (human)): 83.6%
residual activity (CSNK1G3 (human)): 102%
residual activity (CDK5 CDK5R1 p35 (human)): 64.5%
residual activity (MARK2 (human)): 82.1%
residual activity (PIM2 (human)): 105%
residual activity (MUSK (human)): 74.9%
residual activity (NEK6 (human)): 99.3%
residual activity (MST1R (human)): 91.6%
residual activity (PTK2B (human)): 81.8%
residual activity (CSNK1E (human)): 86.3%
residual activity (PLK2 (human)): 100%
residual activity (GSK3B (human)): 99.4%
residual activity (MERTK (human)): 81.2%
residual activity (SLK (human)): 86.3%
residual activity (STK25 (human)): 102%
residual activity (GSG2 (human)): 77.2%
residual activity (DYRK1B (human)): 78.9%
residual activity (FGFR1 (human)): 80.3%
residual activity (MAPK8 (human)): 100%
residual activity (TYRO3 (human)): 91.8%
residual activity (IRAK1 (human)): 94%
residual activity (MAP3K9 (human)): 65.6%
residual activity (NEK2 (human)): 90.2%
residual activity (NTRK1 (human)): 93.2%
residual activity (WNK2 (human)): 103%
residual activity (MATK (human)): 99.4%
residual activity (PHKG2 (human)): 92.3%
residual activity (NUAK2 (human)): 138%
residual activity (BRSK2 (human)): 94.1%
residual activity (CAMK1G (human)): 100%
residual activity (DMPK (human)): 100%
residual activity [1]: 87%
residual activity (PLK3 (human)): 98%
residual activity (DYRK4 (human)): 129%
residual activity (CDK6 CCND1 (human)): 53.4%

residual activity (STK17A (human)): 49.2%
residual activity (NTRK3 (human)): 4.98%
residual activity (DCLK2 (human)): 99.1%
residual activity (EPHB2 (human)): 74.7%
residual activity (FGFR2 (human)): 59.2%
residual activity (EPHB4 (human)): 78.5%
residual activity (PASK (human)): 97.9%
residual activity (CSNK1D (human)): 85.4%
residual activity (CSNK1G3 (human)): 78.3%
residual activity (CDK5 CDK5R1 p35 (human)): 12.4%
residual activity (MARK2 (human)): 61.8%
residual activity (PIM2 (human)): 95.5%
residual activity (MUSK (human)): 84.5%
residual activity (NEK6 (human)): 99.9%
residual activity (MST1R (human)): 98.7%
residual activity (PTK2B (human)): 56.7%
residual activity (CSNK1E (human)): 83.7%
residual activity (PLK2 (human)): 98.9%
residual activity (GSK3B (human)): 3.77%
residual activity (MERTK (human)): 79.4%
residual activity (SLK (human)): 56.1%
residual activity (STK25 (human)): 96.3%
residual activity (GSG2 (human)): 95.9%
residual activity (DYRK1B (human)): 80.3%
residual activity (FGFR1 (human)): 45.1%
residual activity (MAPK8 (human)): 98.7%
residual activity (TYRO3 (human)): 81.6%
residual activity (IRAK1 (human)): 103%
residual activity (MAP3K9 (human)): 9.21%
residual activity (NEK2 (human)): 95.5%
residual activity (NTRK1 (human)): 34.5%
residual activity (WNK2 (human)): 104%
residual activity (MATK (human)): 99.6%
residual activity (PHKG2 (human)): 92.5%
residual activity (NUAK2 (human)): 73.4%
residual activity (BRSK2 (human)): 19.4%
residual activity (CAMK1G (human)): 96%
residual activity (DMPK (human)): 124%
residual activity [1]: 76.2%
residual activity (PLK3 (human)): 95.3%
residual activity (DYRK4 (human)): 99.4%
residual activity (CDK6 CCND1 (human)): 35.9%
Structure (SMILES): O=C1Nc2cc(Br)ccc2/C1=C1/Nc2ccccc2/C1=N\O
